Assay results as given in ChEMBL document CHEMBL1201862, “PubChem BioAssay data set” (2004).
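Interpolation was linear, between the two tested concentrations surrounding the appropriate level; five concentrations were tested over 48 hours in 96-well plates. Abbreviation: GI50, concentration required for 50% inhibition of growth.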 Active and inactive are the calls of the source. Rule as the data show it: active = GI50 up to about 1.1 µM and inactive = higher.

Tests used:
Test in all cases: growth of human tumour cells (NCI), 48 h
[1] = test system: 786-0
[2] = test system: CAKI-1
[3] = test system: EKVX
[4] = test system: HCT-15
[5] = test system: HL-60
[6] = test system: HT-29
[7] = test system: K562
[8] = test system: LOX IMVI
[9] = test system: Malme-3M
[10] = test system: NCI-H226
[11] = test system: NCI-H522
[12] = test system: OVCAR-3
[13] = test system: OVCAR-4
[14] = test system: OVCAR-5
[15] = test system: SF-539
[16] = test system: SK-OV-3
[17] = test system: SN12C
[18] = test system: SNB-19
[19] = test system: UACC-257
[20] = test system: UO-31

COc1c2c(nc3ccccc13)-c1cc3c(c(=O)n1C2)COC(=O)C3(O)CC(=O)N1CCOCC1 (stereo not given)
GI50 [1]: 2.07 µM (inactive)
GI50 [2]: 3.79 µM (inactive)
GI50 [3]: 43.2 µM (inactive)
GI50 [4]: 41.4 µM
GI50 [5]: 2.72 µM (inactive)
GI50 [6]: 17.3 µM (inactive)
GI50 [7]: 4.85 µM (inactive)
GI50 [8]: 1.36 µM (inactive)
GI50 [9]: 16.3 µM (inactive)
GI50 [10]: 6 µM (inactive)
GI50 [11]: 1.9 µM (inactive)
GI50 [12]: 19.4 µM (inactive)
GI50 [13]: 46.1 µM (inactive)
GI50 [14]: 11.4 µM (inactive)
GI50 [15]: 0.964 µM (active)
GI50 [16]: 9.48 µM (inactive)
GI50 [17]: 1.59 µM (inactive)
GI50 [18]: 1.27 µM (inactive)
GI50 [19]: 19 µM (inactive)
GI50 [20]: 7.16 µM (inactive)

COC(=O)c1cc2c(s1)C(=O)c1ccccc1-2
GI50 [1]: > 100 µM (inactive)
GI50 [2]: > 100 µM (inactive)
GI50 [3]: > 100 µM (inactive)
GI50 [4]: > 100 µM
GI50 [5]: > 100 µM (inactive)
GI50 [6]: > 10 µM (inactive)
GI50 [7]: > 100 µM (inactive)
GI50 [8]: > 100 µM (inactive)
GI50 [9]: > 100 µM (inactive)
GI50 [10]: > 100 µM (inactive)
GI50 [11]: > 100 µM (inactive)
GI50 [12]: > 100 µM (inactive)
GI50 [13]: > 100 µM (inactive)
GI50 [14]: > 100 µM (inactive)
GI50 [15]: > 100 µM (inactive)
GI50 [16]: > 100 µM (inactive)
GI50 [17]: > 100 µM (inactive)
GI50 [18]: > 100 µM (inactive)
GI50 [19]: > 100 µM (inactive)
GI50 [20]: > 100 µM (inactive)

CCC1=CCN(c2ccc(C)cc2)OC1c1ccc(OC)cc1 (stereo not given)
GI50 [1]: > 100 µM (inactive)
GI50 [2]: 94.8 µM (inactive)
GI50 [3]: > 100 µM (inactive)
GI50 [4]: 47 µM
GI50 [5]: 68.2 µM (inactive)
GI50 [6]: 33.8 µM (inactive)
GI50 [7]: 94.8 µM (inactive)
GI50 [8]: > 100 µM (inactive)
GI50 [9]: 66.4 µM (inactive)
GI50 [10]: > 100 µM (inactive)
GI50 [11]: 23.6 µM (inactive)
GI50 [12]: > 100 µM (inactive)
GI50 [13]: 92.7 µM (inactive)
GI50 [14]: > 100 µM (inactive)
GI50 [15]: > 100 µM (inactive)
GI50 [16]: > 100 µM (inactive)
GI50 [17]: > 100 µM (inactive)
GI50 [18]: > 100 µM (inactive)
GI50 [19]: 37 µM (inactive)
GI50 [20]: 90.6 µM (inactive)

C=C1Oc2nc3ccccc3c(=O)n2C1(C)C
GI50 [1]: > 100 µM (inactive)
GI50 [2]: > 100 µM (inactive)
GI50 [3]: > 100 µM (inactive)
GI50 [4]: > 100 µM
GI50 [5]: > 100 µM (inactive)
GI50 [6]: > 100 µM (inactive)
GI50 [7]: > 100 µM (inactive)
GI50 [8]: > 100 µM (inactive)
GI50 [9]: > 100 µM (inactive)
GI50 [10]: > 100 µM (inactive)
GI50 [11]: > 100 µM (inactive)
GI50 [12]: > 10 µM (inactive)
GI50 [13]: > 100 µM (inactive)
GI50 [14]: > 100 µM (inactive)
GI50 [15]: > 100 µM (inactive)
GI50 [16]: > 100 µM (inactive)
GI50 [17]: > 100 µM (inactive)
GI50 [18]: > 100 µM (inactive)
GI50 [19]: > 100 µM (inactive)
GI50 [20]: > 100 µM (inactive)
